Drawing on US20150148372A1, “BICYCLIC HETEROCYCLES AS BET PROTEIN INHIBITORS” (Incyte Corporation, priority 2013, published 2015), this text covers IC50 for two molecules.

The target in one assay is T1, BRD4-BD1 (Homo sapiens, UniProt O60885).
T1 construct: 3.8 nM (BRD4-BD1, BPS Bioscience #31040); purchased BPS Bioscience 31040
Kind of assay: BRD4 AlphaScreen assay, BD1. It counts as binding. The conditions noted are these: H4Ac4 peptide, 3.8 nM BRD4-BD1, read-out: BRD4 BD-1 enzyme IC50. How it is done: (§1) BRD4-BD1 and BRD4-BD2 assays were conducted in white 384-well polystyrene plate in a final volume of 20 μL for BD1 and 40 μL for BD2. Inhibitors were first serially diluted in DMSO and added to the plate wells before the addition of other reaction components. The final concentration of DMSO in the assay was 1.25% (BD1) and 0.83% (BD2). The assays were carried out at room temperature for 75 min. in the assay buffer (50 mM HEPES, pH 7.4, 100 mM NaCl, 0.05% CHAPS, 0.01% BSA), containing 50 nM Biotin-labeled tetra-acetylated histone H4 peptide (H4Ac4), 3.8 nM (BRD4-BD1, BPS Bioscience #31040) or 20 nM (BRD4-BD2, BPS Bioscience #31041). The reaction followed by the addition of 20 μL of assay buffer supplemented with Streptavidin donor beads (PerkinElmer 6760002) and GSH Acceptor beads (PerkinElmer-AL 109C) at 4 μg/mL under reduced light. After plate sealing, the plate was incubated in the dark at room temperature for 75 min. before reading on a PHERAstar FS plate reader (BMG Labtech). IC50 determination was performed by fitting the curve of percent control activity versus the log of the inhibitor concentration using the GraphPad Prism 5.0 software. IC50 data for the Examples is presented in Table 1 as determined by Assay A1.

The target in the next assay is T2, BRD4-BD2 (Homo sapiens, UniProt O60885).
T2 construct: 20 nM (BRD4-BD2, BPS Bioscience #31041); purchased BPS Bioscience 31041
Kind of assay: BRD4 AlphaScreen assay, BD2. In kind it is binding. The note with it: H4Ac4 peptide, 20 nM BRD4-BD2, read-out: BRD4 BD-2 enzyme IC50. How it is done:
as §1

On to `Cn1cc(-c2c(Oc3ccc(F)cc3F)ccc3[nH]c(=O)[nH]c23)c2cc[nH]c2c1=O` [Example 1, 5-(2,4-Difluorophenoxy)-4-(6-methyl-7-oxo-6,7-dihydro-H-pyrrolo[2,3-c]pyridin-4-yl)-1,3-dihydro-2H-benzimidazol-2-one], for which the half-inhibitory concentration (IC50) on BRD4-BD1 was 1000 to 10000 nM; at BRD4-BD2, 100 to 1000 nM.

Take `Cn1cc(-c2c(Oc3ccc(F)cc3F)ccc3[nH]cnc23)c2cc[nH]c2c1=O` [Example 2, 4-[5-(2,4-Difluorophenoxy)-1H-benzimidazol-4-yl]-6-methyl-1,6-dihydro-7H-pyrrolo[2,3-c]pyridin-7-one]: the figures for the IC50 on BRD4-BD1 and on BRD4-BD2 were 1000 to 10000 nM and at most 100 nM, respectively.
